Assay results: ChEMBL document CHEMBL3875216, “Synthesis of antimicrobial glucosamides as bacterial quorum sensing mechanism inhibitors” (Bioorg Med Chem, 2017)

Tests used:
[1] = tested on: Escherichia coli; experiment: Inhibition of LuxR-dependent quorum sensing activity in Escherichia coli MT102 harboring pJBA132 assessed as inhibition of OHHL-induced GFP expression at 2 mM measured after 24 hrs by fluorescence assay relative to control
[2] = tested on: Pseudomonas aeruginosa; experiment: Growth inhibition of Pseudomonas aeruginosa MH602 at 500 uM after 24 hrs relative to control; conditions: MH602, 24 h, read-out: GI
[3] = tested on: Escherichia coli; experiment: Growth inhibition of Escherichia coli MT102 at 1 mM after 24 hrs relative to control; conditions: MT102, 24 h, read-out: GI
[4] = tested on: Escherichia coli; experiment: Inhibition of LuxR-dependent quorum sensing activity in Escherichia coli MT102 harboring pJBA132 assessed as inhibition of OHHL-induced GFP expression at 1 mM measured after 24 hrs by fluorescence assay relative to control
[5] = tested on: Escherichia coli; experiment: Inhibition of LuxR-dependent quorum sensing activity in Escherichia coli MT102 harboring pJBA132 assessed as inhibition of OHHL-induced GFP expression at 1 mM measured after 8 hrs by fluorescence assay relative to control
[6] = tested on: Pseudomonas aeruginosa PA14; experiment: Inhibition of quorum sensing-regulated biofilm formation in Pseudomonas aeruginosa PA14 at 2 mM after overnight incubation by crystal violet staining based assay relative to control
[7] = tested on: Pseudomonas aeruginosa; experiment: Growth inhibition of Pseudomonas aeruginosa MH602 at 2 mM after 8 hrs relative to control; conditions: MH602, 8 h, read-out: GI
[8] = tested on: Pseudomonas aeruginosa; experiment: Growth inhibition of Pseudomonas aeruginosa MH602 at 2 mM after 24 hrs relative to control; conditions: MH602, 24 h, read-out: GI
[9] = tested on: Escherichia coli; experiment: Growth inhibition of Escherichia coli MT102 at 2 mM after 8 hrs relative to control; conditions: MT102, 8 h, read-out: GI
[10] = tested on: Escherichia coli; experiment: Inhibition of LuxR-dependent quorum sensing activity in Escherichia coli MT102 harboring pJBA132 assessed as inhibition of OHHL-induced GFP expression at 500 uM measured after 24 hrs by fluorescence assay relative to control
[11] = tested on: Escherichia coli; experiment: Growth inhibition of Escherichia coli MT102 at 500 uM after 24 hrs relative to control; conditions: MT102, 24 h, read-out: GI
[12] = tested on: Escherichia coli; experiment: Growth inhibition of Escherichia coli MT102 at 2 mM after 24 hrs relative to control; conditions: MT102, 24 h, read-out: GI
[13] = tested on: Escherichia coli; experiment: Growth inhibition of Escherichia coli MT102 at 500 uM after 8 hrs relative to control; conditions: MT102, 8 h, read-out: GI
[14] = tested on: Pseudomonas aeruginosa; experiment: Growth inhibition of Pseudomonas aeruginosa MH602 at 500 uM after 8 hrs relative to control; conditions: MH602, 8 h, read-out: GI
[15] = tested on: Pseudomonas aeruginosa PA14; experiment: Inhibition of quorum sensing-regulated pyocyanin production in Pseudomonas aeruginosa PA14 at 2 mM after 24 hrs relative to control
[16] = tested on: Escherichia coli; experiment: Inhibition of LuxR-dependent quorum sensing activity in Escherichia coli MT102 harboring pJBA132 assessed as inhibition of OHHL-induced GFP expression at 500 uM measured after 8 hrs by fluorescence assay relative to control
[17] = tested on: Pseudomonas aeruginosa; experiment: Growth inhibition of Pseudomonas aeruginosa PA14 at 2 mM after 24 hrs relative to control; conditions: 2000 µM
[18] = tested on: Pseudomonas aeruginosa; experiment: Inhibition of LasR-dependent quorum sensing activity in Pseudomonas aeruginosa MH602 harboring GFP-fused […] LasB promoter assessed as inhibition of 3-oxo-dodecanoyl HSL-induced GFP expression at 2 mM measured after 8 hrs by fluorescence assay relative to control
[19] = tested on: Pseudomonas aeruginosa; experiment: Growth inhibition of Pseudomonas aeruginosa MH602 at 1 mM after 8 hrs relative to control; conditions: MH602, 8 h, read-out: GI
[20] = tested on: Pseudomonas aeruginosa; experiment: Inhibition of LasR-dependent quorum sensing activity in Pseudomonas aeruginosa MH602 harboring GFP-fused […] LasB promoter assessed as inhibition of 3-oxo-dodecanoyl HSL-induced GFP expression at 2 mM measured after 24 hrs by fluorescence assay relative to control
[21] = tested on: Pseudomonas aeruginosa; experiment: Inhibition of LasR-dependent quorum sensing activity in Pseudomonas aeruginosa MH602 harboring GFP-fused […] LasB promoter assessed as inhibition of 3-oxo-dodecanoyl HSL-induced GFP expression at 1 mM measured after 8 hrs by fluorescence assay relative to control
[22] = tested on: Pseudomonas aeruginosa; experiment: Inhibition of LasR-dependent quorum sensing activity in Pseudomonas aeruginosa MH602 harboring GFP-fused […] LasB promoter assessed as inhibition of 3-oxo-dodecanoyl HSL-induced GFP expression at 500 uM measured after 24 hrs by fluorescence assay relative to control
[23] = tested on: Pseudomonas aeruginosa; experiment: Inhibition of LasR-dependent quorum sensing activity in Pseudomonas aeruginosa MH602 harboring GFP-fused […] LasB promoter assessed as inhibition of 3-oxo-dodecanoyl HSL-induced GFP expression at 500 uM measured after 8 hrs by fluorescence assay relative to control
[24] = tested on: Escherichia coli; experiment: Inhibition of LuxR-dependent quorum sensing activity in Escherichia coli MT102 harboring pJBA132 assessed as inhibition of OHHL-induced GFP expression at 2 mM measured after 8 hrs by fluorescence assay relative to control
[25] = tested on: Pseudomonas aeruginosa; experiment: Growth inhibition of Pseudomonas aeruginosa MH602 at 1 mM after 24 hrs relative to control; conditions: MH602, 24 h, read-out: GI
[26] = tested on: Escherichia coli; experiment: Growth inhibition of Escherichia coli MT102 at 1 mM after 8 hrs relative to control; conditions: MT102, 8 h, read-out: GI
[27] = tested on: Pseudomonas aeruginosa; experiment: Inhibition of LasR-dependent quorum sensing activity in Pseudomonas aeruginosa MH602 harboring GFP-fused […] LasB promoter assessed as inhibition of 3-oxo-dodecanoyl HSL-induced GFP expression at 1 mM measured after 24 hrs by fluorescence assay relative to control

`CCCC(=O)N[C@H]1[C@H](OC(C)=O)O[C@H](COC(C)=O)[C@@H](OC(C)=O)[C@@H]1OC(C)=O` was tested, and the inhibition [1] was 23.4%, the inhibition at 500 µM [2] was 0% and the inhibition at 1000 µM [3] was 5%. It also gave an inhibition [4] of 4.4%, an inhibition [5] of 21.9% and an inhibition [6] of 7.8%. It also gave an inhibition at 2000 µM [7] of 0%, an inhibition at 2000 µM [8] of 0% and an inhibition at 2000 µM [9] of 0%. It also gave an inhibition [10] of 2.1%, an inhibition at 500 µM [11] of 3% and an inhibition at 2000 µM [12] of 0%. The inhibition at 500 µM [13] was 9.4%, the inhibition at 500 µM [14] was 3.4% and the inhibition [15] was 1.5%. The inhibition [16] was 10.1%, the “growth inhibition (GI)” value [17] was “Non-Toxic” and the inhibition [18] was 10.8%. It also gave an inhibition at 1000 µM [19] of 0.9%, an inhibition [20] of 22.2% and an inhibition [21] of 11%. The inhibition [22] was 2.5%, the inhibition [23] was 3.6% and the inhibition [24] was 6.1%. The inhibition at 1000 µM [25] was 0% and the inhibition at 1000 µM [26] was 0%.

`CC(=O)OC[C@H]1O[C@@H](OC(C)=O)[C@H](NC(=O)Cc2ccc(Br)cc2)[C@@H](OC(C)=O)[C@@H]1OC(C)=O` gave an inhibition [1] of 71.2%, an inhibition at 500 µM [2] of 0% and an inhibition at 1000 µM [3] of 0%. It also gave an inhibition [4] of 36.1%, an inhibition [5] of 5.1% and an inhibition [6] of 26.2%. The inhibition at 2000 µM [7] was 0%, the inhibition at 2000 µM [8] was 0% and the inhibition at 2000 µM [9] was 0%. The inhibition [10] was 8.5%, the inhibition at 500 µM [11] was 0% and the inhibition at 2000 µM [12] was 0%. It also gave an inhibition at 500 µM [13] of 0%, an inhibition at 500 µM [14] of 0% and an inhibition [15] of 0.8%. For the same compound, the inhibition [16] was 8.4%, the “growth inhibition (GI)” value [17] was “Non-Toxic” and the inhibition [18] was 3.2%. It also gave an inhibition [27] of 10%, an inhibition at 1000 µM [19] of 0% and an inhibition [20] of 13.1%. For the same compound, the inhibition [21] was 6.8%, the inhibition [22] was 11.2% and the inhibition [23] was 4.4%. For the same compound, the inhibition [24] was 8.1%, the inhibition at 1000 µM [25] was 0% and the inhibition at 1000 µM [26] was 0%.

`CC(=O)OC[C@H]1O[C@@H](OC(C)=O)[C@H](NC(=O)Cc2ccc(Cl)cc2)[C@@H](OC(C)=O)[C@@H]1OC(C)=O` gave an inhibition [1] of 16.5%, an inhibition at 500 µM [2] of 3.4% and an inhibition at 1000 µM [3] of 0%. For the same compound, the inhibition [4] was 8.5%, the inhibition [5] was 4.2% and the inhibition [6] was 17.8%. It also gave an inhibition at 2000 µM [7] of 0%, an inhibition at 2000 µM [8] of 0% and an inhibition at 2000 µM [9] of 0%. It also gave an inhibition [10] of 1.3%, an inhibition at 500 µM [11] of 0% and an inhibition at 2000 µM [12] of 0%. For the same compound, the inhibition at 500 µM [13] was 0%, the inhibition at 500 µM [14] was 0% and the inhibition [15] was 9.3%. For the same compound, the inhibition [16] was 5.2%, the “growth inhibition (GI)” value [17] was “Non-Toxic” and the inhibition [27] was 14.8%. The inhibition at 1000 µM [19] was 0%, the inhibition [20] was 16.7% and the inhibition [22] was 13.3%. For the same compound, the inhibition [23] was 1.4%, the inhibition [24] was 3.7% and the inhibition at 1000 µM [25] was 0%. For the same compound, the inhibition at 1000 µM [26] was 0%.

`CCCC(=O)N[C@@H]1[C@@H](O)[C@H](O)[C@@H](CO)O[C@H]1O` was tested, and the inhibition [1] was 97.5%, the inhibition at 500 µM [2] was 5.9% and the inhibition at 1000 µM [3] was 13.9%. For the same compound, the inhibition [4] was 93.5%, the inhibition [5] was 92.7% and the inhibition [6] was 22.4%. For the same compound, the inhibition at 2000 µM [7] was 29.8%, the inhibition at 2000 µM [8] was 4.4% and the inhibition at 2000 µM [9] was 83.6%. The inhibition [10] was 46.5%, the inhibition at 500 µM [11] was 13.5% and the inhibition at 2000 µM [12] was 10.7%. For the same compound, the inhibition at 500 µM [13] was 37.9%, the inhibition at 500 µM [14] was 8.9% and the inhibition [15] was 10.6%. For the same compound, the inhibition [16] was 51.7%, the “growth inhibition (GI)” value [17] was “Non-Toxic” and the inhibition [18] was 79.1%. The inhibition at 1000 µM [19] was 0%, the inhibition [20] was 13.4% and the inhibition [21] was 22.5%. It also gave an inhibition [22] of 10.7%, an inhibition [23] of 13.5% and an inhibition [24] of 98.4%. For the same compound, the inhibition at 1000 µM [25] was 0% and the inhibition at 1000 µM [26] was 34.5%.
